Assay results: PMC5555576, “Selective small-chemical inhibitors of protein arginine methyltransferase 5 with anti-lung cancer activity” (PLoS ONE, 2017)
pIC50: −log10 of the molar value. Several values for one entry are separate records, joined by “and”; a condition that tells them apart may be missing. Equal entries are not always repeated. Where two headings read alike, the source gives them in different places.

Tests used:
PC14 cells = assay: Cell growth by cell counting, PC14; type: cell-based; details: 2 days post treatment
Method: (§1) Lung cancer A549 (ATCC) and PC14 (ATCC) cells were cultured in minimum essential medium (Cellgro) with 10% (v/v) fetal bovine serum (FBS) (HyClone), 2% vitamins, 1% L-glutamine, 1% non-essential amino acids and 1% sodium pyruvate. For the treatment with identified compounds, cells (2, 000 cells/well) were seeded in 24-well plates in the medium containing 2% FBS. The fresh medium containing identified compounds was added 24 hours later. Cells were cultured for various times in a CO2 incubator and the cell numbers were counted. Each experiment was performed in triplicate.
(§2) A, Lung cancer A549 cells were cultured in the presence of various concentrations (μM) of identified compounds and growth inhibition was determined by cell counting at various time points. B, Lung cancer PC14 cells were cultured in the presence of DMSO or various concentrations of identified compounds and growth inhibition was determined by cell counting 2 days post the compound treatment. C, The serum concentrations of compound C9 after oral administration. Mice were sacrificed and blood samples were collected immediately before (0 h) and at 2, 4, 6 and 8h after compound administration.

[1] = tested on: arginine methylation in histone H2A, histone H4 and B-Raf in A549 cells; assay: Western blot of symmetrical arginine dimethylation of PRMT5 substrates in cells; type: cell-based; details: 20 μM, SYM10 antibody
Method: Histones were purified as reported previously. Briefly, cells (1–5 x 10^6) or lung tumors (10–100 mg) were lysated using a glass dounce in 1 ml of 1x Passive Lysis Buffer (Promega) and nuclear pellets were collected by centrifugation at 3,000 rpm for 5 min at 4 °C. The supernatant was discard and the pellets were washed with 1 ml of 1x Passive Lysis Buffer. Nuclear pellets were resuspended in 0.4 ml of the buffer (10 mM Trs-HCl, pH7.9, 0.2 mM EDTA, 1 mM DTT, 20% glycerol, 0.42 M KCl) and incubate for 30 min on ice, and centrifuged at 12,000 rpm for 10 min at 4 °C. The supernatant (histones extract) was transferred to a new tube and histones were precipitated by 20% trichloroacetic acid.
Protein extracts or histones (20 μg) were subjected to 10% or 15% sodium dodecyl sulfate-polyacrylamide gel electrophoresis, respectively then transferred to Immobilon-P membranes (Millipore). The blots were then probed for 2 hours with the primary antibody at dilutions of 1:500 (anti-symmetrical dimethylated arginine, SYM10, EMD Millipore), 1:1,000 (anti-B Raf, ab65050, Abcam) or 1:1,000 (anti-PRMT5, Abcam). The blots were then incubated with a horseradish peroxide-conjugated secondary antibody (1:5,000; Fischer Scientific) for 1.5 h. Immunoreactive proteins were detected using an enhanced chemiluminescence detection system (GE Healthcare) per the manufacturer’s instructions. Protein concentrations were determined using the Bradford protein assay reagent (Bio-Rad).
A, The cellular permeability of identified compounds. Lung cancer A549 cells were cultured in the presence of various concentrations of compounds for 2h and the compound concentrations in the cell were determined by HPLC chromatography with a C18 column. B, The cellular stability of identified compounds. […] The compound concentrations in the cell were determined by HPLC chromatography with a C18 column. […] Histones were purified and analyzed by SDS-PAGE stained with Commassie blue (lanes 1–4, bottom) or by Western blot with anti-symmetric dimethyl arginine antibody (SYM10) (lanes 1–4, top). […]

A549 cells = assay: Cell growth by cell counting, A549; type: cell-based; details: for A549 cell growth inhibition: various concentrations and time points
Method: as §1, §2
Fig 8 The C9 analogue has improved PRMT5-inhibitory efficacy and oral drug availability. A, The chemical structure of the C9 analogue. B, Compound C9a inhibited methylation of SmD3 by PRMT5. The recombinant SmD3 (2 μg) was used as the substrate in the absence (lane 5) or presence of 1, 10 or 100 μM compounds as indicated. […] C, C9a has improved efficacy to inhibit lung cancer growth. A549 cells were cultured in the presence of various concentrations of C9 or C9a and growth inhibition was determined by cell counting 2 days post the compound treatment. […] Male BALB/c mice were randomized and administrated C9a by oral gavage and compound concentrations in blood samples were determined.

PRMT5 = molecular target: T1, PRMT5 (Homo sapiens, UniProt O14744); assay: Radioactive methyltransferase assay, PRMT5; type: biochemical
T1 construct: His6; made in house; host or cells: E. coli BL21(ED3) [sic]
T1 sequence (O14744 whole entry): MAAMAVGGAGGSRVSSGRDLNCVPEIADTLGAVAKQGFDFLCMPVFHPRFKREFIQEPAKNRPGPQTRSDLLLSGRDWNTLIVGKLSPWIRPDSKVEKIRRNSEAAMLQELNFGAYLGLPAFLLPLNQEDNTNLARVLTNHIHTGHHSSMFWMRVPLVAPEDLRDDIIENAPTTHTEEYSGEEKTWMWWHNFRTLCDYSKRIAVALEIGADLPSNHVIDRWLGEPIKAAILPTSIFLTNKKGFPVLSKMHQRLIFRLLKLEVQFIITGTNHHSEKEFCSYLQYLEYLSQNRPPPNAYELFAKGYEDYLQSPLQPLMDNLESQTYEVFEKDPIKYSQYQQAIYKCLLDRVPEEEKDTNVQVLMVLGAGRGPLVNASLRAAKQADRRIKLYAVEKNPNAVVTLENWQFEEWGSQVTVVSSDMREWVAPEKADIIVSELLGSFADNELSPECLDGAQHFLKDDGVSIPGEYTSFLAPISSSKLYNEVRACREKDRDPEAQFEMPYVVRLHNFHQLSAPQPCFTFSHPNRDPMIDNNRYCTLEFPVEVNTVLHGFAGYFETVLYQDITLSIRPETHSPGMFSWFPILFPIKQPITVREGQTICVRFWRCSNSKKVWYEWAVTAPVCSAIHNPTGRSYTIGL
Method: Methylation reactions were performed as previously described with a few modifications. Reaction mixtures (40 μl) containing 1.2 μg of PRMT5, 98 ng of PRMT1 or 98 ng of PRMT3; 2 μg of SmD3 or histones; 1 μCi of S-[methyl-^3H]adenosylmethionine (H^3-AdoMet; PerkinElmer); and 5 μM AdoMet were incubated in 50 mM Tris-HCl (pH 7.5)–1 mM EGTA–1 mM EDTA at 30°C for 2 h. Reaction mixtures (20 μl) were boiled in 5 μl of 5x SDS sample buffer and separated on a 15% polyacrylamide gel. Gels were fixed for 30 min in 40% methanol–10% acetic acid, incubated in 20 ml of Amplify (Amersham Life Science) for 10 min, dried and exposed to X-ray film at -80°C. IC50 was calculated by linear regression analysis of percent inhibition. The other half (20 μl) of each reaction mixture was spread onto DE81 chromatography paper discs (Whatman). The paper discs were washed 4 times with 50 mM NaHCO3 and dried. The amounts of methylated products were quantified by liquid scintillation.
In vitro methylation reactions were performed with recombinant PRMT5 (1.2 μg), PRMT1 ([…]) or PRMT3 (89 ng); [H^3]-AdoMet; and different substrates in the presence of identified compounds. […] The recombinant SmD3 (2 μg) was used as the substrate in the absence (lane 2) or presence of 1, 10 or 100 μM compounds as indicated. Reaction mixtures were separated on an SDS–15% polyacrylamide gel and the gel was dried under vacuum and exposed to film. […] Recombinant histones H4 or H2A (1 μg) were used as substrates of PRMT5 in the methylation assay in the absence or presence of 100 μM compounds as indicated. Reaction mixtures were spread onto DE81 chromatography paper discs. After a wash, the amounts of methylated products on discs were quantified by liquid scintillation. […] PRMT1 was incubated with purified histones (1 μg) or recombinant E2F1 (1 μg) as substrates in the absence (lane 2) or presence of 100 μM compounds as indicated. Reaction mixtures were separated on an SDS–15% polyacrylamide gel and the gel was dried and exposed to film.

[2] = methylation of SmD3 by PRMT5, Table 1 prints no unit, μM, read-out: IC50

SMILES | PC14 cell growth inhibition (PC14 cells) | arginine methylation in histone H2A, histone H4 and B-Raf [1] | pIC50 (A549 cells; Homo sapiens, A549 cells) | A549 cell growth inhibition (A549 cells) | IC50 (PRMT5; [2]) | IC50 (PRMT5; wild type PRMT5, SmD3 substrate, Fig 4D, read-out: IC50 (μM) PRMT5) [µM] | inhibition of growth of lung cancer cells compared to C9 (A549 cells; A549 cells, 2 days) | inhibition of PRMT5 activity compared to C9 (PRMT5; SmD3 substrate, 1, 10 or 100 μM)
COc1ccc(Nc2ncnc3c2cnn3Cc2ccc(C)cc2)cc1 [Compound C9] | inhibited PC14 cell growth | significantly inhibited | ~6.00 | inhibited A549 cell growth in a dosage- and time-dependent manner at sub μM concentrations | ~6 µM and 6 µM |  |  | 
CCn1c(=O)[nH]c2cc(C(=O)Nc3ccc(OC)cc3)ccc2c1=O [Compound C5] | inhibited PC14 cell growth | significantly inhibited |  | inhibited A549 cell growth in a dosage- and time-dependent manner at sub μM concentrations | 0.75 µM | 0.8 |  | 
Cn1cc(C(c2ccc(O)c(O)c2O)c2cn(C)c3ccccc23)c2ccccc21 [Compound C11] | inhibited PC14 cell growth | significantly inhibited |  | inhibited A549 cell growth in a dosage- and time-dependent manner at sub μM concentrations | 0.3 µM |  |  | 
Nc1cccc(Nc2ncnc3c2cnn3Cc2ccccc2)c1 [Compound C9a] |  |  |  |  | 0.7 µM |  | higher efficacy | higher efficacy
